Experimental data reported in patent publication US8906952B2, “Indole derivative or pharmaceutically acceptable salt thereof, preparation method thereof, and pharmaceutical composition for preventing or treating metabolic diseases containing same as active ingredient” (Korea Research Institute of Bioscience and Biotechnology, priority 2011, dated 2014).

How the values were obtained:
[1] = system: ICR mice; experiment: Acute toxicity assay; format: in vivo; details: oral 100, 250 mg/kg; observation over two weeks
Method: In order to investigate acute toxicity of the indole derivatives according to the present invention, mice (20±5 g, Central Lab. Animal Inc.) and rats (235±10 g, Central Lab. Animal Inc.) were used for the acute toxicity assay of compound 1.
A total of […] of 10 ICR mice were orally administered with compound 1 according to the present invention by the dose of 100, 250 mg/kg, respectively.

[2] = system: HuTu80 cells; experiment: DGAT activity inhibitory effect in HuTu80 cells (triglyceride production from [14C]oleate); format: cell-based, human; details: for activity at 10 µM / inhibition at 10 µM / activity at 0.3 µM / activity at 1 µM / activity at 3 µM: Homo sapiens, HuTu80; for activity at 10 µM / activity at 0.3 µM / activity at 1 µM / activity at 3 µM: read-out: Triglyceride Production Rate (% of control)/HuTu80cells; for inhibition at 10 µM / inhibition of biosynthesis of triglycerides (in words): Hutu 80 cells; for inhibition at 10 µM: read-out: inhibitory activity on intracellular biosynthesis of triglycerides
Method: HuTu80 cells were seeded in 24-well culture plate by 2×10^5 cells/well. After 24 hr, the medium was exchanged with FBS-free DMEM and concurrently treated with sample and substrate. For the substrate, 0.5 μCi [^14C]oleate was respectively added and allowed to react for 2 hr. After the reaction, the substrate that was either not absorbed into cells or not used for the reaction were washed with PBS two times, and total fat containing triglyceride was extracted by adding 1 ml extraction solvent (n-hexane/2-propanol=3/2, v/v). The extract was concentrated with nitrogen gas. The total fat after elimination of extraction solvent was dissolved in organic solvent (chloroform/methanol=2/1, v/v), spotted on thin layer chromatography (TLC: silica gel 60F254, 0.5 mm, Merck), and developed on developing solvent (n-hexane/diethyl ether/acetic acid=80/20/1, v/v/v). After isolating triglyceride (R∫ value: 0.4) from TLC, exposing to the film with photosensitivity to energy of radioactive elements (imaging plate's Fujifilm, BAS-MS 2040) for 3 hr, and the radioactive dose of triglyceride was measured by conducting image analysis (FLA 7000).
The remaining cells after the extraction were dissolved in 0.3 ml 0.1N NaOH to measure the protein concentration of the cells used for the reaction. The protein quantification was performed with Lowry method-based, protein quantification kit (Bio-Rad). After seeding protein on 96-well, round bottom culture plate, 25 μl of solution containing 1 ml protein analysis reagent (bio-rad, alkaline copper tartrate solution) and 20 μl protein reagent S (bio-rad, surfactant solution) was seeded per well, to induce reaction between copper ion and protein. After reaction with copper ion, 200 μl reagent B (bio-rad, folin reagent) was seeded per well to allow reduction reaction of the folin reagent to occur. For the amount of protein, the light absorptivity at 750 nm was measured based on the blue coloring of the folin reagent as the reduction occurred, and the concentrations of the protein corresponding to respective light absorptivities were quantified by obtaining standard curves with the standard material as bovine serum albumin (BSA). Using the experiment value, which is obtained by dividing the measured radiation dose of the triglyceride by the protein concentration, the above process was repeated three or more times, and the mean value with ±standard error was obtained, as tabulated below.

[3] = system: C57BL/6J mice; experiment: Oral lipid tolerance test (OLTT), corn oil load; format: in vivo; details: for increase of triglyceride concentration: 30 mg/kg; for effect on blood triglyceride concentration (in words): administered to mice
Method: For experiment, 8-week-old male C57BL/6J mice were purchased from Biolink, adapted to environment in bio clean room (Temp. 22±3° C., Humidity 50±10%, Lighting 12 hr interval) for 1 week, and one day before the experiment, fasted for 16 hr. The mice were allowed to freely eat radiation-sterilized solid rodent feed (Harlan, Ind., USA), except for the 16 hr fasting period before the administration of test sample, and were also allowed to freely have a sufficient amount of drinking water which was sterilized in autoclave throughout the test period.
Seven C57BL/6J mice were allocated for solvent control group (V.C., Vehicle Control), and another seven for experimental group (sample group), after which sample was administered as follows.
The normal control group was administered with administration medium (0.5% CMC; carboxy methyl cellulose) only, while the experimental group was orally administered with the compounds of Examples 27 and 49 by 10, 30 mg/kg concentrations, respectively. Before administering the samples to all the animals of the experimental group, the animals were fasted for 16 hr, after which the corresponding sample was orally administered one time, using sonde for oral administration. After 60 min, 6 ml/kg liquid measure of corn oil was orally administered. Blood samples were taken immediately before administration of the corn oil (at 0 hr), and after the corn coil administration, the blood samples were taken directly using heparin-treated capillary tube from retro-orbital sinus at predetermined time (at 2 hr and at 4 hr). The blood samples were centrifuged at 3,000 rpm for 10 min to separate plasma, and the concentration of triglyceride was directly analyzed with automated hematology chemistry analyzer (Hitachi 7150, Japan).

[4] = 10 mg/kg oral, 0 hr (immediately before corn oil)
[5] = 10 mg/kg oral, 2 hr after corn oil
[6] = 10 mg/kg oral, 4 hr after corn oil
[7] = 30 mg/kg oral, 0 hr (immediately before corn oil)
[8] = 30 mg/kg oral, 2 hr after corn oil
[9] = 30 mg/kg oral, 4 hr after corn oil
[10] = after 2 hr of corn oil administration
[11] = after 4 hr of corn oil administration

Row | SMILES | death [1] | difference on the outside [1] | activity at 10 µM [2] | inhibition at 10 µM [2] | Serum TG [3, 4] | Serum TG [3, 5] | Serum TG [3, 6] | Serum TG [3, 7] | Serum TG [3, 8] | Serum TG [3, 9] | increase of triglyceride concentration [3, 10] | increase of triglyceride concentration [3, 11] | effect on blood triglyceride concentration (in words) [3] | activity at 0.3 µM [2] | activity at 1 µM [2] | activity at 3 µM [2] | inhibition of biosynthesis of triglycerides (in words) [2]
1 | CC(C)N(NC(=O)c1ccccc1)C(=O)/C=C/c1cn(C(=O)OC(C)(C)C)c2ccccc12 [Example 1, (E)-tert-butyl 3-(3-(2-benzoyl-1-isopropylhydrazinyl)-3-oxoprop-1-enyl)-1H-indole-1-carboxylate] | no death | nor did the groups show any specific difference on the outside | – | – | – | – | – | – | – | – | – | – | – | – | – | – | –
2 | CC(C)=CCn1cc(/C=C/C(=O)N(NC(=O)c2ccccc2)C(C)C)c2ccccc21 [Example 27, (E)-N′-isopropyl-N′-(3-(1-(3-methylbut-2-enyl)-1H-indol-3-yl)acryloyl)benzohydrazide] | – | – | 13.1 ± 0.9% | 70 to 80% | 62.8 ± 20.6 mg/dL | 171.0 ± 61.7 mg/dL | 83.0 ± 22.8 mg/dL | 45.4 ± 7.2 mg/dL | 104.2 ± 40.3 mg/dL | 79.8 ± 37.3 mg/dL | approximately 1.9 fold | approximately 1.1 fold | superior effect of decreasing blood triglyceride concentration | – | – | – | –
3 | CC(C)N(NC(=O)c1ccc(F)cc1)C(=O)/C=C/c1cn(C(=O)OC(C)(C)C)c2ccccc12 [Example 44, (E)-tert-butyl 3-(3-(2-(4-fluorobenzoyl)-1-isopropylhydrazinyl)-3-oxoprop-1-enyl)-1H-indole-1-carboxylate] | – | – | 20 ± 1.2% | 70 to 80% | – | – | – | – | – | – | – | – | – | 63.9 ± 4.3% | 43.7 ± 0.3% | 29 ± 0.9% | inhibited biosynthesis of triglycerides in a concentration-dependent manner
4 | CC(C)CCn1cc(/C=C/C(=O)N(NC(=O)c2ccc(F)cc2)C(C)C)c2ccccc21 [Example 46, (E)-4-fluoro-N′-(3-(1-isopentyl-1H-indol-3-yl)acryloyl)-N′-isopropylbenzohydrazide] | – | – | 20 ± 1.8% | 70 to 80% | – | – | – | – | – | – | – | – | – | 30 ± 0.3% | 30 ± 1.3% | 20 ± 1.2% | inhibited biosynthesis of triglycerides in a concentration-dependent manner
5 | Cc1cccc(C(=O)NN(C(=O)/C=C/c2cn(C(=O)OC(C)(C)C)c3ccccc23)C(C)C)c1 [Example 47, (E)-tert-butyl 3-(3-(1-isopropyl-2-(3-methylbenzoyl)hydrazinyl)-3-oxoprop-1-enyl)-1H-indole-1-carboxylate] | – | – | 13.7 ± 1.5% | 70 to 80% | – | – | – | – | – | – | – | – | – | 56.1 ± 0.1% | 30.2 ± 1.2% | 19 ± 5% | inhibited biosynthesis of triglycerides in a concentration-dependent manner
6 | Cc1ccc(C(=O)NN(C(=O)/C=C/c2cn(C(=O)OC(C)(C)C)c3ccccc23)C(C)C)cc1 [Example 48, (E)-tert-butyl 3-(3-(1-isopropyl-2-(4-methylbenzoyl)hydrazinyl)-3-oxoprop-1-enyl)-1H-indole-1-carboxylate] | – | – | 23.9 ± 0.8% | – | – | – | – | – | – | – | – | – | – | – | – | – | –
7 | CC(C)=CCn1cc(/C=C/C(=O)N(NC(=O)c2ccc(F)cc2)C(C)C)c2ccccc21 [Example 49, (E)-4-fluoro-N′-isopropyl-N′-(3-(1-(3-methylbut-2-enyl)-1H-indol-3-yl)acryloyl)benzohydrazide] | – | – | 13.1 ± 0.9% | 70 to 80% | 78.8 ± 23.2 mg/dL | 90.8 ± 28.2 mg/dL | 43.2 ± 12.9 mg/dL | 45.8 ± 6.1 mg/dL | 86.4 ± 11.1 mg/dL | 50.0 ± 11.9 mg/dL | ~2.3 fold | ~1.8 fold | superior effect of decreasing blood triglyceride concentration | 66.9 ± 3% | 33.4 ± 4.4% | 21.4 ± 0.3% | inhibited biosynthesis of triglycerides in a concentration-dependent manner
